Source: ChEMBL document CHEMBL6103557, “Novel Pyrrolidinone Urea Compounds as FPR2 Agonists for Treating Atherosclerosis and Heart Failure” (ACS Med Chem Lett, 2024)

Target: T1, N-formyl peptide receptor 2 (Homo sapiens, UniProt P25090)
T1 sequence (P25090 whole entry): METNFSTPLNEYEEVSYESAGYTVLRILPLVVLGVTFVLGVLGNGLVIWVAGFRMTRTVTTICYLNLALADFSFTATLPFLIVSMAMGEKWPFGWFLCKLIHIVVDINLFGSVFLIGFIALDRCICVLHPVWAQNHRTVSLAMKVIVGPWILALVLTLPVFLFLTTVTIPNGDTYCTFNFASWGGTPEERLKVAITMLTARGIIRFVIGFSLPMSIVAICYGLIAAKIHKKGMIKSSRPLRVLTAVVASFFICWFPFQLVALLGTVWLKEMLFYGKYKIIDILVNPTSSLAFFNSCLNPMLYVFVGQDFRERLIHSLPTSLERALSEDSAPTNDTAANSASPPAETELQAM
Assay: Agonist activity at human FPR2 expressed in forskolin/IBMX-treated CHO cells incubated for 30 mins by HTRF HiRange cAMP assay
Format: functional, cell-based

SMILES: O=C(Nc1ccc(Cl)cc1F)N[C@@H]1C[C@@H](CO)N(c2ccc(N3CCC(C(F)(F)F)C3)c(F)c2F)C1=O (stereo partly specified)
- EC50: 140 pM

SMILES: O=C(Nc1ccc(Cl)cc1F)N[C@@H]1CCN(c2ccc(N3CCC(CO)C3)c(F)c2F)C1=O (stereo partly specified)
- EC50: 740 pM

SMILES: CN(C)[C@H]1CN(c2ccc(N3CC[C@@H](NC(=O)Nc4ccc(Cl)cc4F)C3=O)c(F)c2F)C[C@H]1F
- EC50: 710 pM

SMILES: CN(C)[C@@H]1CCN(c2ccc(N3CC[C@@H](NC(=O)Nc4ccc(C(F)(F)F)cc4F)C3=O)c(F)c2F)C1
- EC50: 100 pM

SMILES: CC(C)(O)C1CCCN1c1cc(F)c(N2CCC(NC(=O)Nc3ccc(Cl)cc3F)C2=O)c(F)c1 (stereo unspecified)
- EC50: 510 pM

SMILES: O=C(Nc1ccc(Cl)cc1F)N[C@@H]1C[C@@H](CO)N(c2ccc(N3CCC(C(F)F)C3)c(F)c2F)C1=O (stereo partly specified)
- EC50: 700 pM
